# Reference: patent US5532225A, “Acyclic purine phosphonate nucleotide analogs as antiviral agents, and related synthetic methods” (SRI International, priority 1992, dated 1996)
# Legend:
# [1] = tested on: human cytomegalovirus; experiment: in vitro antiviral evaluation (cytotoxicity and viral cytopathic effect, CPE) in MRC-5 cells; assay type: cell-based; settings: racemate approximately 50:50 (w/w) of 1-9 and 2-9
# Method: The compounds prepared in Examples 1 and 2 were evaluated in vitro as antiviral agents against human cytomegalovirus.
# One herpes virus strain employed was Strain McCrae of type 1 herpes (thymidine kinase positive virus) (HSV-1TK^+). This strain was prepared and titered in MA-104 cells and frozen at -90° C. until use. Also used were strain HF (HSV-1TK^-), strain E194 (HSV-2), NJB strain (MCMV), and strain AD169 (HCMV).
# Continuous passaged MRC-5 cells obtained from the American Type Culture Collection (Bethesda, Md.) were used for testing of herpes-type virus, with growth medium consisting of Minimum Essential Medium (MEM) supplemented with 0.1% NaHCO3 and […] gentamicin.
# To a 96 well microtiter plate containing an established 24 hour monolayer of cells from which the medium has been decanted was added 0.1 mL of varying (one-half log10) concentrations of test compound, which incubated on the cell 15 minutes, after which 0.1 mL of virus in a concentration of 320 cell culture 50% infectious doses (CCID50)/0.1 mL was added. The plate was covered with plastic wrap and incubated at 37° C. The cells were examined microscopically after 72 hours for evidence of cytotoxicity and for viral cytopathic effect (CPE).
# [2] = tested on: several herpes viruses; experiment: activity of isolated enantiomer against several herpes viruses (general statement); assay type: cell-based
compound,measurement,setting,value
"Nc1nc2c(ncn2CO[C@@H](CO)CCP(=O)(O)O)c(=O)[nH]1 [Compound 2-9, 9-[(R(-)-1-Hydroxymethyl-3-phosphono)-propyl-oxymethyl]guanine]",share of the antiviral activity of the racemate due to the enantiomer (conclusion in words),[1],majority of the antiviral activity of the racemate is due to the (R) enantiomer
same,activity against several herpes viruses (in words),[2],significant activity against several herpes viruses
